From US20230066156A1, “6-SUBSTITUTED, 22-CYANO HYODEOXYCHOLANIC ANALOGUES AND USES THEREOF” (PRECISION BIO-THERAPEUTICS S.R.L., priority 2019, published 2023) come the findings set out here.

One assay addresses T1, FXR (Homo sapiens, UniProt Q96RI1).
T1 construct: expressed in transfected cells; host or cells: HepG2
T1 sequence (Q96RI1 1-486): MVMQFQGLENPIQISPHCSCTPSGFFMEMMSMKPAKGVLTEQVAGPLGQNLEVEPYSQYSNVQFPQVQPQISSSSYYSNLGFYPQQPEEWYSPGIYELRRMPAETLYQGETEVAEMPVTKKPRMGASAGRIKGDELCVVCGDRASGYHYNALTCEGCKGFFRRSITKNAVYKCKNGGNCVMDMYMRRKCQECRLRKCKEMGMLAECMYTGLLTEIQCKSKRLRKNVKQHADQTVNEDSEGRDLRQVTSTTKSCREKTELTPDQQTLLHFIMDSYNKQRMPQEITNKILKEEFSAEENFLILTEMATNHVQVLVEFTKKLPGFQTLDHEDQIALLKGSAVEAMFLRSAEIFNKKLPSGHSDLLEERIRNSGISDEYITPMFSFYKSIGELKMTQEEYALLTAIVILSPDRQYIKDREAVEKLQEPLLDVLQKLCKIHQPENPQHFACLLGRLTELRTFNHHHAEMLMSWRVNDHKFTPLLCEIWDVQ
T1 sequence (P19793 1-462 partner): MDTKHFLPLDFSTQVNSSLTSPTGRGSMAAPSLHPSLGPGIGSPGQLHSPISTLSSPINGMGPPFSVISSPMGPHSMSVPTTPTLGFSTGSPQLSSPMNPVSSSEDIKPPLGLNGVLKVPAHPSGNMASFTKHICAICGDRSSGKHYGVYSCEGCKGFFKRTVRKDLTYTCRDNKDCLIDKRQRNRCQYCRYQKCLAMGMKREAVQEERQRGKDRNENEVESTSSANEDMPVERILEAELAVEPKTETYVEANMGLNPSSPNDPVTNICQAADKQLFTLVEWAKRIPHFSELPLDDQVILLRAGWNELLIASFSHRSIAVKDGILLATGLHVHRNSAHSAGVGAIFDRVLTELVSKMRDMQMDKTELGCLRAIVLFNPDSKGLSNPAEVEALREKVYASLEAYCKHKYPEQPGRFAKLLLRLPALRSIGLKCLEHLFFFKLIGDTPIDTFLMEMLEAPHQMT
The assay is described as follows: FXR mediated transactivation, IR1 (hsp27)-luciferase reporter in transfected HepG2 cells. The assay is classed as cell-based. Particulars: compound at 10 μM, HepG2, vs maximal transactivation by CDCA 10 μM, triplicate. On the procedure:
(§1) Selected compounds were tested in vitro on FXR and TGR5/GPBAR1 receptors (Table 1) using a whole cell model transfected with a reporter genes. The activity was evaluated in comparison with chenodeoxycholic acid (CDCA) and TLCA.
(§2) CDCA is a primary bile acid that functions as an endogenous ligand for FXR, while TLCA is a physiological ligand for TGR5/GPBAR1. In this assay, HepG2 cells (a liver-derived cell line) were cultured at 37° C. in minimum essential medium with Earl's salts containing 10% fetal bovine serum (FBS), 1% L-glutamine, and 1% penicillin/streptomycin. HEK-293T cells were cultured at 37° C. in D-MEM containing 10% fetal bovine serum (FBS), 1% L-glutamine, and 1% penicillin/streptomycin. The transfection experiments were performed using Fugene HD according to manufactured specifications. Cells were plated in a 24-well plate at 5×10^4 cells/well. For FXR mediated transactivation, HepG2 cells were transfected with 100 ng of pSG5-FXR, 100 ng of pSG5-RXR, 100 ng of pGL4.70 a vector encoding the human Renilla gene and 250 ng of the reporter vector p(hsp27)-TK-LUC containing the FXR response element IR1 cloned from the promoter of heat shock protein 27 (hsp27).
(§3) The data on the activity of certain compounds of the invention on TGR5/GPBAR1 are described in the following table 1. In this table, activities for compounds of the invention on GPBAR1 was compared to those of the reference compound TLCA. For % of activity, each compound was tested at the concentration of 10 microM and transactivation activity of TLCA on CRE (i.e. TGR5/GPBAR1) was considered equal to 100%. For selectivity toward FXR, activity was assessed in HepG2 cells transfected with an FXR responsive element (IR1) cloned upstream to the luciferase gene. For calculation of efficacy data, maximal transactivation of IR1 caused by each compound (10 μM) was compared to maximal transactivation caused by CDCA (10 μM). GPBAR1/FXR selectivity calculated as ratio between % of activity toward GPBAR1 and % of activity toward FXR. Each experiment was conducted in triplicate.
For orientation: Reporter assays use an easily measured gene product as a stand-in for the process of interest.

The next assay deals with T2, human GPBAR1 (Homo sapiens, UniProt Q8TDU6).
T2 construct: expressed in transfected cells; host or cells: HEK-293T
T2 sequence (Q8TDU6 1-330): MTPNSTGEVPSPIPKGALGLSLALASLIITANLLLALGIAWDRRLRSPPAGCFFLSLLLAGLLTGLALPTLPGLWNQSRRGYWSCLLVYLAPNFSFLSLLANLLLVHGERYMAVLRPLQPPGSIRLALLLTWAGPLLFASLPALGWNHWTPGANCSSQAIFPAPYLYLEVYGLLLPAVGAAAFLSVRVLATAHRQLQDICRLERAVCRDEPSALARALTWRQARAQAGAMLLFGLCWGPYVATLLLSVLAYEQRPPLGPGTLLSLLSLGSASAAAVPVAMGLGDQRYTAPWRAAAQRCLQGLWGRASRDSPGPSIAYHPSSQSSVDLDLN
The assay is described as follows: GPBAR1 mediated transactivation, CRE-luciferase reporter in transfected HEK-293T cells. The assay is classed as cell-based. The conditions noted are these: for EC50: HEK-293T CRE-luciferase transactivation; for GPBAR1 (% of activity in comparison to 10 μM TLCA): compound at 10 microM, HEK-293T, TLCA = 100%, triplicate; for GPBAR1/FXR selectivity: ratio between % of activity toward GPBAR1 and % of activity toward FXR. As for the experimental part: as §1, §2
For GPBAR1 mediated transactivation, HEK-293T cells were transfected with 200 ng of pGL4.29, a reporter vector containing a cAMP response element (CRE) that drives the transcription of the luciferase reporter gene luc2P, with 100 ng of pCMVSPORT6-human GPBAR1, and with 100 ng of pGL4.70 a vector encoding the human Renilla gene. In control experiments HEK-293T cells were transfected only with vectors pGL4.29 and pGL4.70 to exclude any possibility that compounds could activate the CRE in a GPBAR1 independent manner. At 24 h post-transfection, cells were stimulated for 18 h with 10 μM TLCA as a control agent or putative GPBAR1 agonists as the same concentration. After treatments, cells were lysed in 100 μL of lysis buffer (25 mM Tris-phosphate, pH 7.8; 2 mM DTT; 10% glycerol; 1% Triton X-100), and 20 μL of cellular lysate was assayed for luciferase activity using the luciferase assay system. Luminescence was measured using Glomax 20/20 luminometer. Luciferase activities were normalized against Renilla activities. Antagonism against FXR of GPBAR1/TGR5 was measured as percent of activity in transactivation assay suing activity of TLCA as example of agonism.
as §3

With `C[C@H](CC#N)[C@H]1CC[C@H]2[C@@H]3C[C@@](C)(O)[C@@H]4C[C@H](O)CC[C@]4(C)[C@H]3CC[C@]12C` [PBT109A, 3α, 6β-dihydroxy-6α-methyl-24-nor-5β-cholan-23-nitrile], at FXR, the “FXR (% of activity in comparison to 10 μM CDCA)” value came to 5.5 ± 0.7%. At human GPBAR1, the half-maximal effective concentration (EC50) (as a rule, the midpoint of the concentration-response curve) came to 570 nM; the “GPBAR1 (% of activity in comparison to 10 μM TLCA)” value is given as 83.4 ± 2.4%; the GPBAR1/FXR selectivity is 15.1.
Turning to `C[C@H](CC#N)[C@H]1CC[C@H]2[C@@H]3C[C@](C)(O)[C@@H]4C[C@H](O)CC[C@]4(C)[C@H]3CC[C@]12C` [PBT109B, 3α,6α-dihydroxy-6β-methyl-24-nor-5β-cholan-23-nitrile], the “FXR (% of activity in comparison to 10 μM CDCA)” value at FXR came to 6.4 ± 0.23%. Moreover, on human GPBAR1, the EC50 worked out at 6900 nM, the “GPBAR1 (% of activity in comparison to 10 μM TLCA)” value is listed as 95.4 ± 0.24% and the GPBAR1/FXR selectivity came to 14.9.
As for `CC[C@@]1(O)C[C@H]2[C@@H]3CC[C@H]([C@H](C)CC#N)[C@@]3(C)CC[C@@H]2[C@@]2(C)CC[C@@H](O)C[C@@H]12` [PBT110A, 3α,6β-dihydroxy-6α-ethyl-24-nor-5β-cholan-23-nitrile], the “FXR (% of activity in comparison to 10 μM CDCA)” value at FXR is listed as 6.6 ± 0.065%. For the same compound, at human GPBAR1, it took 660 nM to reach a half-maximal effect (EC50), the “GPBAR1 (% of activity in comparison to 10 μM TLCA)” value was determined as 65.9 ± 1.69% and the GPBAR1/FXR selectivity turned out to be 9.9.
As for `CCC[C@]1(O)C[C@H]2[C@@H]3CC[C@H]([C@H](C)CC#N)[C@@]3(C)CC[C@@H]2[C@@]2(C)CC[C@@H](O)C[C@@H]12` [PBT111, 3α,6α-dihydroxy-6β-propyl-24-nor-5β-cholan-23-nitrile], the “FXR (% of activity in comparison to 10 μM CDCA)” value on FXR was 3.1 ± 0.29%. Besides, on human GPBAR1, it took 1200 nM to reach a half-maximal effect (EC50), the “GPBAR1 (% of activity in comparison to 10 μM TLCA)” value was determined as 67.1 ± 2.1% and the GPBAR1/FXR selectivity is listed as 21.6.
For `CC(C)[C@]1(O)C[C@@H]2[C@H](CC[C@]3(C)[C@@H]([C@H](C)CC#N)CC[C@@H]23)[C@@]2(C)CC[C@@H](O)C[C@H]21` [PBT112, 3α, 6α-dihydroxy-6β-isopropyl-24-nor-5β-cholane-23-nitrile] the same measures were 4.3 ± 0.31%, 2780 nM, 22.2 ± 0.13% and 5.16.
In the case of `C=C[C@]1(O)C[C@@H]2[C@H](CC[C@]3(C)[C@@H]([C@H](C)CC#N)CC[C@@H]23)[C@@]2(C)CC[C@@H](O)C[C@H]21` [PBT113, 3α, 6α-dihydroxy-6β-vinyl-24-nor-5β-cholane-23-nitrile], the “FXR (% of activity in comparison to 10 μM CDCA)” value at FXR is listed as 2.2 ± 0.5%. On human GPBAR1, a half-maximal effect (EC50) was put at 2260 nM, the “GPBAR1 (% of activity in comparison to 10 μM TLCA)” value was 62.5 ± 2.18% and the GPBAR1/FXR selectivity came out at 28.4.
For the compound `C=CCCC[C@]1(O)C[C@H]2[C@@H]3CC[C@H]([C@H](C)CC#N)[C@@]3(C)CC[C@@H]2[C@@]2(C)CC[C@@H](O)C[C@@H]12` [PBT114, 3α, 6α-dihydroxy-6β-(4-Pentenyl)-24-Nor-5β-Cholane-23-Nitrile], at FXR, the “FXR (% of activity in comparison to 10 μM CDCA)” value was 1.6 ± 0.05%. Moreover, on human GPBAR1, the EC50 amounted to 780 nM, the “GPBAR1 (% of activity in comparison to 10 μM TLCA)” value worked out at 90.1 ± 1.35% and the GPBAR1/FXR selectivity was 56.31.
On to `C[C@H](CC#N)[C@H]1CC[C@H]2[C@@H]3C[C@@](O)(c4ccccc4)[C@@H]4C[C@H](O)CC[C@]4(C)[C@H]3CC[C@]12C` [PBT115, 3α, 6α-dihydroxy-6β-phenyl-24-nor-5β-cholane-23-nitrile], for which the “FXR (% of activity in comparison to 10 μM CDCA)” value at FXR is given as 18.2 ± 1.08%. For the same compound, on human GPBAR1, it took 4580 nM to reach a half-maximal effect (EC50), the “GPBAR1 (% of activity in comparison to 10 μM TLCA)” value is recorded as 38.8 ± 1.79% and the GPBAR1/FXR selectivity is 2.13.
For `C[C@H](CC#N)[C@H]1CC[C@H]2[C@@H]3C[C@](O)(Cc4ccccc4)[C@@H]4C[C@H](O)CC[C@]4(C)[C@H]3CC[C@]12C` [PBT117, 3α,6β-dihydroxy-6α-benzyl-24-nor-5β-cholane-23-nitrile] the same measures were 4.4 ± 0.49%, 9330 nM, 8.3 ± 0.015% and 1.88.
